What was measured:
Type in all cases: in vivo
Kentucky bluegrass = assay: Greenhouse Kentucky bluegrass height and quality, ABA and trinexapac-ethyl (Example 1); conditions: 200 ppm ABA
Protocol: Greenhouse studies were conducted at the Research Farm of Valent BioSciences Corporation (Long Grove, Ill.). Grasses were grown in pots (18 cm in diameter and 18 cm in height) filled with Promix BX (available from Premier Horticulture Inc. Quakertown, Pa.). Grass was irrigated daily by an overhead irrigation system. The irrigation system was set up with multiple Tornado Mist Spray Heads (10 GPH at 40 PSI-Wetted diameter, NDS/Raindrip, Woodland Hills, Calif.). Spray heads were 1-meter apart from each other and 75 cm above grass canopy. Grass was cut with a scissor at 2.5 cm height and fertilizer (1 g/L all purpose fertilizer 20-20-20, available from The Scotts Company, Marysville, Ohio) was applied once per week.
(§1) Chemical solutions were prepared with distilled water. Tween 20 (0.05% v/v) was used as an, adjuvant. Both trinexapac-ethyl (commercial product Primo Maxx, 11.3% active ingredient) and paclobutrazol (commercial product Trimmit 2SC, 22.3% active ingredient) were purchased from Syngenta Crop Protection Inc. (Greensboro, N.C.). Uniconazole-P (commercial product Sumagic, 0.55% active ingredient) was obtained from Valent U.S.A. Corporation (Walnut Creek, Calif.).
(§2) When treated with paclobutrazol or uniconazole-P, turfgrass received irrigation within 24 hours after application to flush chemicals to the root zone. After treatment, turfgrasses were arranged in a randomized complete block experimental design. Turfgrass quality, turfgrass height or clip fresh weight was measured on assigned dates. Turfgrass quality was visually rated on a 0-9 scale based on the color, uniformity and density of the grass with 0 as the worst and 9 as the best. Turfgrass height was measured as the distance between canopy surface and soil. Clips were collected from each plot; all plots were cut to a uniform height.
(§3) All experiments were randomized complete block experimental design. Data were analyzed by analysis of variance. Duncan's new multiple range tests at α=0.05 were used for mean separations.
Kentucky bluegrass sod (unknown variety) was purchased from Deak sod farms, Inc. (Union Grove, Wis.). Grass was grown in the greenhouse in pots (n=6 pots per treatment) for establishment before treatment. […] Tween 20 (0.05% w/v) was included as an adjuvant. Turfgrass canopy was not cut during the experimental period.

creeping bentgrass = assay: Golf course green creeping bentgrass height, ABA and trinexapac-ethyl (Example 4); conditions: 200 ppm ABA
Protocol: (§4) Field studies were conducted at the nursery green or the practice green at Countryside golf course (Mundelein, Ill.). Both greens were sand based and growing Penncross creeping bentgrass. Grass was managed with typical Illinois golf course management practices.
as §1, §2, §3
(§5) Tween 20 (0.05% w/v) was included as an adjuvant.

creeping bentgrass green = assay: Soil moisture of creeping bentgrass green, ABA and trinexapac-ethyl (Example 8); conditions: 500 ppm ABA
Protocol: as §4, §1, §2, §3, §5

[1] = tested on: tomato (variety: Rutgers); assay: Tomato leaf transpiration, porometer (Example 9)
Excerpt: (§6) Tomato (variety: Rutgers) seeds were sown in 18-cell flat filled with Promix PGX (available from Premier Horticulture Inc. Quakertown, Pa.) and grown for 3 weeks to allow for germination and initial growth. Plants were then transplanted into pots (18 cm in diameter and 18 cm in height), filled with Promix BX (available from Premier Horticulture Inc. Quakertown, Pa.), and grown for one week before the chemical treatment. Plants received daily irrigation and weekly fertilizer (1 g/L all purpose fertilizer 20-20-20, available from The Scotts Company, Marysville, Ohio).
(§7) During the chemical treatment, a 15 mL (2.5 mL/plant) solution was foliar sprayed on the tomato canopy. Leaf transpiration rates were measured using a LI-1600 Steady State Porometer (LI-Cor, Lincoln, Nebr.) at 1, 2, 3, 4, 7, 10 and 15 days after treatment. Leaf transpiration rate was normalized to the percentage of control plant to minimize the experimental errors caused by environmental factors. Plant height was measured at 0, 2, 4, 7, 10 and 15 days after treatment. Growth rate was calculated based on the changes of plant height in certain intervals. The plants were harvested and the leaf number was counted at 15 days after treatment.

[2] = tested on: tomato (variety: Rutgers); assay: Tomato plant height, growth rate and leaf number (Example 9); conditions: for Leaf number: 15 days after treatment
Excerpt: as §6, §7

[3] = 250 ppm ABA, day 2 after treatment
[4] = 250 ppm ABA, day 4 after treatment
[5] = 250 ppm ABA, day 7 after treatment
[6] = 250 ppm ABA, day 10 after treatment
[7] = 250 ppm ABA, day 15 after treatment
[8] = 500 ppm ABA, day 2 after treatment
[9] = 500 ppm ABA, day 4 after treatment
[10] = 500 ppm ABA, day 7 after treatment
[11] = 500 ppm ABA, day 10 after treatment
[12] = 500 ppm ABA, day 15 after treatment
[13] = 1000 ppm ABA, day 2 after treatment
[14] = 1000 ppm ABA, day 4 after treatment
[15] = 1000 ppm ABA, day 7 after treatment
[16] = 1000 ppm ABA, day 10 after treatment
[17] = 1000 ppm ABA, day 15 after treatment
[18] = 2000 ppm ABA, day 2 after treatment
[19] = 2000 ppm ABA, day 4 after treatment
[20] = 2000 ppm ABA, day 7 after treatment
[21] = 2000 ppm ABA, day 10 after treatment
[22] = 2000 ppm ABA, day 15 after treatment

In the case of S-abscisic acid [ABA], the Turfgrass height (Kentucky bluegrass; 7 days after treatment) is reported as 9.4 cm, the Turfgrass height (Kentucky bluegrass; 23 days after treatment) is reported as 19.0 cm and the Turfgrass height (creeping bentgrass; 7 days after treatment) is reported as 5.3 cm. It also gave a Turfgrass height (creeping bentgrass; 14 days after treatment) of 8.2 cm, a Soil moisture (creeping bentgrass green; 2 days after treatment) of 11.4% and a Soil moisture (creeping bentgrass green; 7 days after treatment) of 10.9%. The Transpiration ([1]; 250 ppm ABA, day 1 after treatment) was 87 % of control, the Transpiration [1, 3] was 86 % of control and the Transpiration ([1]; 250 ppm ABA, day 3 after treatment) was 91 % of control. The Transpiration [1, 4] was 95 % of control, the Transpiration [1, 5] was 99 % of control and the Transpiration [1, 6] was 98 % of control. For the same substance, the Transpiration [1, 7] was 99 % of control, the Transpiration ([1]; 500 ppm ABA, day 1 after treatment) was 78 % of control and the Transpiration [1, 8] was 78 % of control. For the same substance, the Transpiration ([1]; 500 ppm ABA, day 3 after treatment) was 84 % of control, the Transpiration [1, 9] was 88 % of control and the Transpiration [1, 10] was 98 % of control. For the same substance, the Transpiration [1, 11] was 99 % of control, the Transpiration [1, 12] was 99 % of control and the Transpiration ([1]; 1000 ppm ABA, day 1 after treatment) was 60 % of control. The Transpiration [1, 13] was 73 % of control, the Transpiration ([1]; 1000 ppm ABA, day 3 after treatment) was 76 % of control and the Transpiration [1, 14] was 84 % of control. For the same substance, the Transpiration [1, 15] was 93 % of control, the Transpiration [1, 16] was 99 % of control and the Transpiration [1, 17] was 97 % of control. The Transpiration ([1]; 2000 ppm ABA, day 1 after treatment) was 46 % of control, the Transpiration [1, 18] was 58 % of control and the Transpiration ([1]; 2000 ppm ABA, day 3 after treatment) was 70 % of control. The Transpiration [1, 19] was 76 % of control, the Transpiration [1, 20] was 85 % of control and the Transpiration [1, 21] was 95 % of control. For the same substance, the Transpiration [1, 22] was 100 % of control, the Leaf number ([2]; 250 ppm ABA) was 12.2 and the Plant height ([2]; 250 ppm ABA, day 0 after treatment) was 9.9 cm. It also gave a Growth rate [2, 3] of 1.5 cm/day, a Plant height [2, 3] of 12.8 cm and a Growth rate [2, 4] of 1.6 cm/day. It also gave a Plant height [2, 4] of 16.3 cm, a Growth rate [2, 5] of 2.7 cm/day and a Plant height [2, 5] of 28.5 cm. The Growth rate [2, 6] was 2.1 cm/day, the Plant height [2, 6] was 30.4 cm and the Growth rate [2, 7] was 2.3 cm/day. For the same substance, the Plant height [2, 7] was 45.5 cm, the Leaf number ([2]; 500 ppm ABA) was 12.0 and the Plant height ([2]; 500 ppm ABA, day 0 after treatment) was 10.1 cm. It also gave a Growth rate [2, 8] of 1.3 cm/day, a Plant height [2, 8] of 12.5 cm and a Growth rate [2, 9] of 1.6 cm/day. The Plant height [2, 9] was 16.3 cm, the Growth rate [2, 10] was 2.4 cm/day and the Plant height [2, 10] was 27.0 cm. For the same substance, the Growth rate [2, 11] was 2.0 cm/day, the Plant height [2, 11] was 29.6 cm and the Growth rate [2, 12] was 2.3 cm/day. It also gave a Plant height [2, 12] of 44.1 cm, a Leaf number ([2]; 1000 ppm ABA) of 12.0 and a Plant height ([2]; 1000 ppm ABA, day 0 after treatment) of 9.8 cm. The Growth rate [2, 13] was 1.0 cm/day, the Plant height [2, 13] was 11.7 cm and the Growth rate [2, 14] was 1.2 cm/day. The Plant height [2, 14] was 14.5 cm, the Growth rate [2, 15] was 2.2 cm/day and the Plant height [2, 15] was 25.3 cm. For the same substance, the Growth rate [2, 16] was 1.8 cm/day, the Plant height [2, 16] was 27.4 cm and the Growth rate [2, 17] was 2.0 cm/day. The Plant height [2, 17] was 41.6 cm, the Leaf number ([2]; 2000 ppm ABA) was 12.0 and the Plant height ([2]; 2000 ppm ABA, day 0 after treatment) was 9.8 cm. It also gave a Growth rate [2, 18] of 0.9 cm/day, a Plant height [2, 18] of 11.5 cm and a Growth rate [2, 19] of 1.3 cm/day. For the same substance, the Plant height [2, 19] was 14.9 cm, the Growth rate [2, 20] was 1.9 cm/day and the Plant height [2, 20] was 23.2 cm. It also gave a Growth rate [2, 21] of 1.6 cm/day, a Plant height [2, 21] of 25.8 cm and a Growth rate [2, 22] of 1.9 cm/day. For the same substance, the Plant height [2, 22] was 40.5 cm.

— patent US20080227638A1, “Use of abscisic acid to enhance growth control” (priority 2007, published 2008)
